Assay results as given in patent EP4692094A1 (Beijing Konruns Pharmaceutical Co., Ltd., priority 2023, dated 2024).

Key:
CYP2C19 = target: T1, CYP2C19 (Homo sapiens, UniProt P33261); assay: Inhibitory effect on P450 enzymes in vitro (human liver microsomes), CYP2C19; assay type: in vitro ADME; conditions: probe mephenytoin, final concentration 10 µM, substrate mephenytoin, read-out: % inhibition rate CYP2C19 (mephenytoin)
T1 construct: from tissue; host or cells: human liver microsomes
Protocol: 1.1 Preparation of compounds: The compounds prepared in the examples were each dissolved in dimethylsulfoxide to give solutions at a concentration of 2 mmol/L.
1.2 Test methods: • 1) Incubation system: human liver microsomes, a MgCl2 solution, a phosphate buffer solution, and a substrate solution were each added a 96-well deep-well plate and mixed homogenously. In the final incubation system, the concentration of the human liver microsomes was 0.2 mg/mL, and the final concentrations of the MgCl2 solution and the phosphate buffer solution were 5 mM and 100 mM, respectively. • 2) 1 µL of the substrate solution was added to the incubation system, and the final concentrations of CYP1A2 phenacetin, 2C8 paclitaxel […], 2C19 mephenytoin, 2D6 midazolam, and 3A midazolam substrates were 40 µM (phenacetin), 5 µM (paclitaxel), 50 µM (mephenytoin), 10 µM (mephenytoin), 5 µM (midazolam), and 50 µM […], respectively. • 3) 1 µL of the example compound or vehicle (DMSO) was added to the incubation system, and the incubation system was pre-warmed for 5 min in a 37 °C water bath before starting the reaction with 20 µL of 10 mM NADPH solution.
1.3 Sample treatment: Within the designated time (20 min for phenacetin, 10 min for paclitaxel, 20 min for mephenytoin, 20 min for dextromethorphan, 5 min for midazolam, and 10 min for testosterone), 400 µL of methanol containing the internal standard was added to terminate the reaction, and the mixture was vortexed and mixed homogeneously. Then, the deep-well plate was centrifuged at 3220 g and 4 °C for 40 min. 100 µL of the supernatant was transferred into a new plate, and 150 µL of purified water was added. The mixture was mixed homogenously for LC-MS/MS analysis. Table 11. Inhibitory effects of some compounds in the examples on CYP enzymes

[1] = Assay for plasma protein binding rate (equilibrium dialysis), rat plasma; assay type: in vitro ADME; conditions: dialysis 6 h at 37 °C, read-out: Rat (Fu%)
Protocol: 1.1 Preparation of compounds: The compounds prepared in the examples were each dissolved in dimethylsulfoxide to give solutions at a concentration of 10 mmol/L. • 1) The example compounds were each diluted from 10 mmol/L stock solution to 0.2 mmol/L, i.e., 1 µL of the compound was added to 49 µL of DMSO; • 2) 3 µL of 0.2 mmol/L test compounds were added to 597 µL of blood plasma, and the mixtures were vortexed at 1000 rpm for 2 min; • 3) 50 µL of the plasma containing the drug in 2) was taken, 50 µL of PBS was added, and 300 µL of methanol internal standard* was added to serve as a sample T0; • 4) 120 µL of the plasma containing the drug in 2) was taken and added to one side of an HTD device membrane, and 120 µL of PBS was added to the other side of the membrane; a breathable film was covered, and the plasma and the residual sample in 2) were balanced at 37 °C (100 rpm and 5% CO2) for 6 h; • 5) 50 µL of the dialyzed plasma side sample was taken, 50 µL of PBS was added, and 300 µL of methanol internal standard* was added to serve as a sample P; • 6) 50 µL of the dialyzed PBS side sample was taken, 50 µL of blank plasma was added, and 300 µL of methanol internal standard* was added to serve as a sample B; • 7) 50 µL of the plasma containing the drug in 2) was taken, 50 µL of PBS was added, and 300 µL of methanol internal standard* was added to serve as a sample T6; • 8) All samples were vortexed, mixed homogeneously, and then centrifuged at 3220 g for 40 min at 4 °C; • 9) 100 µL of the supernatant and 100 µL of purified water were mixed homogenously for liquid chromatography-mass spectrometry.
An internal standard method was used, and the plasma protein binding rate, recovery rate, and residual percentage were calculated by using Excel according to the ratio of the peak area of the sample to the peak area of the internal standard. Free rate(%) = (RatioB)/(RatioP) × 100% [formula] Binding rate(%) = 100%−Free rate% [formula] Recovery rate(%) = (RatioB + RatioP)/(RatioT0) × 100% [formula] Remaining percentage(%) = (RatioT6)/(RatioT0) × 100% [formula]
RatioB: a ratio of the peak area of the test substance on the PBS side to the peak area of the internal standard; RatioP: a ratio of the peak area of the test substance on the plasma side to the peak area of the internal standard; RatioT6: a ratio of the peak area of the sample after incubation with the test substance for 6 h to the peak area of the internal standard; RatioT0: a ratio of the peak area of the sample after incubation with the test substance for 0 h to the peak area of the internal standard. Table 8. Plasma protein binding rate (Fu%) data for various species of example compounds

T1 sequence (P33261 whole entry): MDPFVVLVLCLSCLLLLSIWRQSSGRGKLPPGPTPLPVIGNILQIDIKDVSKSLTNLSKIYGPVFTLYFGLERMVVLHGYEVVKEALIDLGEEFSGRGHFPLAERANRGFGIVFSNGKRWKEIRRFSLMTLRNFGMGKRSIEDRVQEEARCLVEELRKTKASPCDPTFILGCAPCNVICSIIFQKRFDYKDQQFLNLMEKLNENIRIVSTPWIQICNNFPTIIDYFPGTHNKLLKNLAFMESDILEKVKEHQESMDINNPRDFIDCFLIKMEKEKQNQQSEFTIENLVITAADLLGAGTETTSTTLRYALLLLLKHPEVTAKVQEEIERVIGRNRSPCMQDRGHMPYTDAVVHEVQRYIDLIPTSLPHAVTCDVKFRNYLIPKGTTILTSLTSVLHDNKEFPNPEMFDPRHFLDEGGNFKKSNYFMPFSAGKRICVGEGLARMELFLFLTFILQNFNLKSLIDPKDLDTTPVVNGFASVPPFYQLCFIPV

COc1ccc2ccoc2c1S(=O)(=O)Nc1noc2cc(Cn3cccn3)nc(OC)c12 [Example 10, N-(6-((1H-Pyrazol-1-yl)methyl)-4-methoxyisoxazolo[4,5-c]pyridin-3-yl)-6-methoxybenzofuran-7-sulfonamide]
inhibition at 20 min, 10 µM (CYP2C19): 9.54% | fraction unbound at 6 h, 1 µM [1]: 0.0132

COc1cc2c(cc1S(=O)(=O)Nc1noc3cc(Cn4cccn4)nc(OC)c13)CCCO2 [Example 76, N-(6-((1H-Pyrazol-1-yl)methyl)-4-methoxyisoxazolo[4,5-c]pyridin-3-yl)-7-methoxy-3,4-dihydro-1H-benzopyran-6-sulfonamide]
fraction unbound at 6 h, 1 µM [1]: 0.0144

COc1cc2c(cc1S(=O)(=O)Nc1noc3cc(Cn4cccn4)nc(OC)c13)CCCC2 [Example 2, N-(6-((1H-Pyrazol-1-yl)methyl)-4-methoxyisoxazolo[4,5-c]pyridin-3-yl)-3-methoxy-5,6,7,8-tetrahydronaphthalene-2-sulfonamide]
inhibition at 20 min, 10 µM (CYP2C19): 42.8% | fraction unbound at 6 h, 1 µM [1]: 0.0167

COc1cc2c(cc1S(=O)(=O)Nc1noc3cc(Cn4cccn4)nc(OC)c13)OCC2 [Example 59, N-(6-((1H-Pyrazol-1-yl)methyl)-4-methoxyisoxazolo[4,5-c]pyridin-3-yl)-5-methoxy-2,3-dihydrobenzofuran-6-sulfonamide]
inhibition at 20 min, 10 µM (CYP2C19): 7.62% | fraction unbound at 6 h, 1 µM [1]: 0.0414

COc1ccc2c(c1S(=O)(=O)Nc1noc3cc(Cn4cccn4)nc(OC)c13)OCC2 [Example 9, N-(6-((1H-Pyrazol-1-yl)methyl)-4-methoxyisoxazolo[4,5-c]pyridin-3-yl)-6-methoxy-2,3-dihydrobenzofuran-7-sulfonamide]
fraction unbound at 6 h, 1 µM [1]: 0.0257
